Measurements: PMC6900016, “Synthesis of Indomorphan Pseudo‐Natural Product Inhibitors of Glucose Transporters GLUT‐1 and ‐3” (Angewandte Chemie (International Ed. in English), 2019)

Tested on: HCT116
Assay: cells
Design: 2-deoxyglucose uptake inhibition, semi-automated resazurin/diaphorase fluorescence read-out of 2DG6P
Conditions: Homo sapiens, HCT-116, 0.5 h; 2DG uptake
Method: Resazurin-based 2DG uptake assay (semi-automated high throughput) All buffers, reagents and steps were identical with those described for the manual screening Washing and [compound left out] addition steps were done using an automated cell washer or a multidrop device, respectively. Screening was performed in a 384-well plates. 15,000 HCT116 cells/well seeded into 384-well black-walled, clear bottomed plates (CellBIND, Corning) and incubated overnight. Compounds were added at 30 µM (final concentration for screening or serial dilutions staring from 30 µM for IC50 determinations) from DMSO stocks using the acoustic nanoliter dispenser ECHO 520. Fluorescence intensity was read from the bottom with a SpectraMax Paradigm Multi-Mode Microplate Reader (Molecular devices) using SUPPORTING INFORMATION 259 control (which was set to 100 %) and cells without 2DG (set to 0 %) using Graph Pad Prism 5 or 6 software and IC50 values were determined using a four-parameter fit. The observed difference in the obtained IC50 values for Glupin in the automated screening vs. manually performed assay is most likely attributed to the minituarization that is required for high-troughput screening and usually requires different plate format (384 vs. 96-well plates) and different cell number. In this case, the automated assay was performed in 384-well plates (vs. 96-well plates for the manual assay) with 15,000 cells per well (vs. 40,000 cells per well in the 96-well plates). For kinetic measurements, 15,000 cells were seeded into black CellBIND 384-well plates (Corning) and allowed to attach overnight. Then, the plates were washed 3X with KRB buffer containing 0.1%BSA and treated with different concentrations of 2DG (0-60mM) and Glupin (0-1µM) for 30s to 30min. The uptake was determined using the resazurin/diaphorase system as described above. 2DG uptake was stopped by aspirating the 2DG solution followed by quick wash with ice-cold KRB buffer (0.1 % BSA). Km and Vmax were determined by fitting the data according to Michaelis-Menten using non-linear fitting. The glucose uptake assay monitored the inhibition of 2‐deoxyglucose (2DG) uptake as described by Yamamoto et al.25 Briefly, 2DG uptake is determined by quantification of the 2DG‐6‐phosphate (2DG6P) that accumulates inside the cells by using the diaphorase‐resazurin/‐resorufin system (see Figure S7 a).

| SMILES | IC50 |
| --- | --- |
| CCOC(=O)Cn1c2c(c3cc(OC)ccc31)CC1CC2C(OC)CN1C(=O)c1cccnc1SC (racemic) [5aa, (±)-Ethyl 2-(5,10-dimethoxy-3-(2-(methylthio)nicotinoyl)-1,2,3,4,5,6-hexahydro-7H-2,6-methanoazocino[5,4-b]indol-7-yl)acetate] | 4220 ± 3460 nM |
| CCOC(=O)Cn1c2c(c3cc(C(=O)N4CCOCC4)ccc31)CC1CC2C(OC)CN1C(=O)c1cccnc1SC (racemic) [5ab, (±)-Ethyl 2-(5-methoxy-3-(2-(methylthio)nicotinoyl)-10-(morpholine-4-carbonyl)-1,2,3,4,5,6-hexahydro-7H-2,6-methanoazocino[5,4-b]indol-7-yl)acetate] | > 30000 nM |
| COC(=O)Cn1c2c(c3ccccc31)CC1CC2C(OC)CN1C(=O)c1cccnc1SC (racemic) [5ad, (±)-methyl 2-(5-methoxy-3-(2-(methylthio)nicotinoyl)-3,4,5,6-tetrahydro-1H-2,6-methanoazocino[5,4-b]indol-7(2H)-yl)acetate] | 89 ± 32 nM |
| COC1CN(C(=O)c2cccnc2SC)C2Cc3c(n(CC(=O)Oc4ccccc4)c4ccccc34)C1C2 (racemic) [5ae, (±)-phenyl 2-(5-methoxy-3-(2-(methylthio)nicotinoyl)-3,4,5,6-tetrahydro-1H-2,6-methanoazocino[5,4-b]indol-7(2H)-yl)acetate] | 220 ± 80 nM |
| CCOC(=O)Cn1c2c(c3ccccc31)CC1CC2C(OC)CN1C(=O)c1cccnc1Cl (racemic) [5af, (±)-Ethyl 2-(3-(2-chloronicotinoyl)-5-methoxy-1,2,3,4,5,6-hexahydro-7H-2,6-methanoazocino[5,4-b]indol-7-yl)acetate] | 93 ± 41 nM |
| CCOC(=O)Cn1c2c(c3ccccc31)CC1CC2C(OC)CN1C(=O)c1cccnc1S(C)(=O)=O (racemic) [5ag, (±)-Ethyl 2-(5-methoxy-3-(2-(methylsulfonyl)nicotinoyl)-1,2,3,4,5,6-hexahydro-7H-2,6-methanoazocino[5,4-b]indol-7-yl)acetate] | 1700 ± 700 nM |
| CCOC(=O)Cn1c2c(c3ccccc31)CC1CC2C(OC)CN1C(=O)c1cccnc1Sc1ccccc1 (racemic) [5ah, (±)-Ethyl 2-(5-methoxy-3-(2-(phenylthio)nicotinoyl)-1,2,3,4,5,6-hexahydro-7H-2,6-methanoazocino[5,4-b]indol-7-yl)acetate] | 140 ± 70 nM |
| CCCSc1ncccc1C(=O)N1CC(OC)C2CC1Cc1c2n(CC(=O)OCC)c2ccccc12 (racemic) [5ai, (±)-Ethyl 2-(5-methoxy-3-(2-(propylthio)nicotinoyl)-1,2,3,4,5,6-hexahydro-7H-2,6-methanoazocino[5,4-b]indol-7-yl)acetate] | 190 ± 120 nM |
| CCOC(=O)Cn1c2c(c3ccccc31)CC1CC2C(OC)CN1C(=O)c1cccnc1Br (racemic) [5aj, (±)-Ethyl 2-(3-(2-bromonicotinoyl)-5-methoxy-1,2,3,4,5,6-hexahydro-7H-2,6-methanoazocino[5,4-b]indol-7-yl)acetate] | 180 ± 60 nM |
| CCOC(=O)Cn1c2c(c3ccccc31)CC1CC2C(OC)CN1C(=O)c1cccnc1OCC (racemic) [5ak, (±)-Ethyl 2-(3-(2-ethoxynicotinoyl)-5-methoxy-1,2,3,4,5,6-hexahydro-7H-2,6-methanoazocino[5,4-b]indol-7-yl)acetate] | 220 ± 70 nM |
| CCOC(=O)Cn1c2c(c3ccccc31)CC1CC2C(OC)CN1C(=O)c1cccnc1N1CCOCC1 (racemic) [5al, (±)-Ethyl 2-(5-methoxy-3-(2-morpholinonicotinoyl)-1,2,3,4,5,6-hexahydro-7H-2,6-methanoazocino[5,4-b]indol-7-yl)acetate] | 1400 ± 200 nM |
| CCOC(=O)Cn1c2c(c3ccccc31)CC1CC2C(OC)CN1C(=O)c1cccnc1NC(=O)C(C)(C)C (racemic) [5am, (±)-Ethyl 2-(5-methoxy-3-(2-pivalamidonicotinoyl)-1,2,3,4,5,6-hexahydro-7H-2,6-methanoazocino[5,4-b]indol-7-yl)acetate] | > 30000 nM |
| CCOC(=O)Cn1c2c(c3ccccc31)CC1CC2C(OC)CN1C(=O)c1ccncc1 (racemic) [5ao, (±)-Ethyl 2-(3-isonicotinoyl-5-methoxy-1,2,3,4,5,6-hexahydro-7H-2,6-methanoazocino[5,4-b]indol-7-yl)acetate] | 13000 ± 3000 nM |
| CCOC(=O)Cn1c2c(c3ccccc31)CC1CC2C(OC)CN1C(=O)c1cncnc1 (racemic) [5ap, (±)-Ethyl 2-(5-methoxy-3-(pyrimidine-5-carbonyl)-1,2,3,4,5,6-hexahydro-7H-2,6-methanoazocino[5,4-b]indol-7-yl)acetate] | 14000 ± 5000 nM |
| CCOC(=O)Cn1c2c(c3ccccc31)CC1CC2C(OC)CN1C(=O)c1cccs1 (racemic) [5aq, (±)-Ethyl 2-(5-methoxy-3-(thiophene-2-carbonyl)-1,2,3,4,5,6-hexahydro-7H-2,6-methanoazocino[5,4-b]indol-7-yl)acetate] | 3000 ± 400 nM |
| CCOC(=O)Cn1c2c(c3ccccc31)CC1CC2C(OC)CN1C(=O)c1ccc(C)o1 (racemic) [5at, (±)-Ethyl 2-(5-methoxy-3-(5-methylfuran-2-carbonyl)-1,2,3,4,5,6-hexahydro-7H-2,6-methanoazocino[5,4-b]indol-7-yl)acetate] | 8600 ± 4000 nM |
| CCOC(=O)Cn1c2c(c3ccccc31)CC1CC2C(OC(C)=O)CN1C(=O)c1cccnc1SC (racemic) [5b, (±)-Ethyl 2-(5-acetoxy-3-(2-(methylthio)nicotinoyl)-1,2,3,4,5,6-hexahydro-7H-2,6-methanoazocino[5,4-b]indol-7-yl)acetate] | 53 ± 23 nM |
| CCOC(=O)Cn1c2c(c3ccccc31)CC1CC2C(O)CN1C(=O)c1cccnc1SC (racemic) [5c, (±)-Ethyl 2-(5-hydroxy-3-(2-(methylthio)nicotinoyl)-1,2,3,4,5,6-hexahydro-7H-2,6-methanoazocino[5,4-b]indol-7-yl)acetate] | 130 ± 50 nM |
| CCCOC1CN(C(=O)c2cccnc2SC)C2Cc3c(n(CC(=O)OCC)c4ccccc34)C1C2 (racemic) [5d, (±)-Ethyl 2-(3-(2-(methylthio)nicotinoyl)-5-propoxy-1,2,3,4,5,6-hexahydro-7H-2,6-methanoazocino[5,4-b]indol-7-yl)acetate] | 87 ± 15 nM |
| CCOC(=O)Cn1c2c(c3cc(O)ccc31)CC1CC2C(OC)CN1C(=O)c1cccnc1SC (racemic) [5f, (±)-Ethyl 2-(-10-hydroxy-5-methoxy-3-(2-(methylthio)nicotinoyl)-1,2,3,4,5,6-hexahydro-7H-2,6-methanoazocino[5,4-b]indol-7-yl)acetate] | 100 ± 60 nM |
| CCOC(=O)Cn1c2c(c3cc(Cl)ccc31)CC1CC2C(OC)CN1C(=O)c1cccnc1SC (racemic) [5g, (±)-Ethyl 2-(10-chloro-5-methoxy-3-(2-(methylthio)nicotinoyl)-1,2,3,4,5,6-hexahydro-7H-2,6-methanoazocino[5,4-b]indol-7-yl)acetate] | 1400 ± 200 nM |
| CCOC(=O)Cn1c2c(c3cccc(Cl)c31)CC1CC2C(OC)CN1C(=O)c1cccnc1SC (racemic) [5h, (±)-Ethyl 2-(8-chloro-5-methoxy-3-(2-(methylthio)nicotinoyl)-1,2,3,4,5,6-hexahydro-7H-2,6-methanoazocino[5,4-b]indol-7-yl)acetate] | 210 ± 90 nM |
| COC1CN(C(=O)c2cccnc2SC)C2Cc3c([nH]c4ccccc34)C1C2 (racemic) [5j, (±)-(5-methoxy-1,2,4,5,6,7-hexahydro-3H-2,6-methanoazocino[5,4-b]indol-3-yl)(2-(methylthio)pyridin-3-yl)methanone] | > 30000 nM |
| COC1CN(C(=O)c2cccnc2SC)C2Cc3c(n(CC(=O)OC(C)(C)C)c4ccccc34)C1C2 (racemic) [5k, (±)-tert-butyl 2-(5-methoxy-3-(2-(methylthio)nicotinoyl)-3,4,5,6-tetrahydro-1H-2,6-methanoazocino[5,4-b]indol-7(2H)-yl)acetate] | 190 ± 60 nM |
| CCCOC(=O)Cn1c2c(c3ccccc31)CC1CC2C(OC)CN1C(=O)c1cccnc1SC (racemic) [5l, (±)-Propyl 2-(-5-methoxy-3-(2-(methylthio)nicotinoyl)-3,4,5,6-tetrahydro-1H-2,6-methanoazocino[5,4-b]indol-7(2H)-yl)acetate] | 93 ± 35 nM |
| COC1CN(C(=O)c2cccnc2SC)C2Cc3c(n(CC(=O)O)c4ccccc34)C1C2 (racemic) [5n, (±)-2-(5-methoxy-3-(2-(methylthio)nicotinoyl)-1,2,3,4,5,6-hexahydro-7H-2,6-methanoazocino[5,4-b]indol-7-yl)acetic acid] | 10000 ± 4000 nM |
| COC1CN(C(=O)c2cccnc2SC)C2Cc3c(n(Cc4ccco4)c4ccccc34)C1C2 (racemic) [5o, (±)-(7-(furan-2-ylmethyl)-5-methoxy-5,6-dihydro-1H-2,6-methanoazocino[5,4-b]indol-3(2H,4H,7H)-yl)(2-(methylthio)pyridin-3-yl)methanone] | 6700 ± 2400 nM |
